The results in this text go back to ChEMBL document CHEMBL1221172, “Identification of a specific inhibitor of the histone methyltransferase SU(VAR)3-9” (Nat Chem Biol, 2005).

The structures appear in SMILES notation. Activity calls are given as the source filed them. No cut-off for these calls is given here.

In data set [1] the test system is SL-2. The data set is described as follows: Cytotoxicity against Drosophila melanogaster SL-2 cells seeded at high density assessed as growth retardation for 24 to 48 hrs up to 0.5 uM. Format: cell-based.
Data set [2] deals with SL-2. The data set is described as follows: Cytotoxicity against Drosophila melanogaster SL-2 cells seeded at low density. Format: cell-based.
The target in data set [3] is T1, Histone-lysine N-methyltransferase Set8 (Drosophila melanogaster, UniProt Q9VFK6).
T1 sequence (Q9VFK6 whole entry): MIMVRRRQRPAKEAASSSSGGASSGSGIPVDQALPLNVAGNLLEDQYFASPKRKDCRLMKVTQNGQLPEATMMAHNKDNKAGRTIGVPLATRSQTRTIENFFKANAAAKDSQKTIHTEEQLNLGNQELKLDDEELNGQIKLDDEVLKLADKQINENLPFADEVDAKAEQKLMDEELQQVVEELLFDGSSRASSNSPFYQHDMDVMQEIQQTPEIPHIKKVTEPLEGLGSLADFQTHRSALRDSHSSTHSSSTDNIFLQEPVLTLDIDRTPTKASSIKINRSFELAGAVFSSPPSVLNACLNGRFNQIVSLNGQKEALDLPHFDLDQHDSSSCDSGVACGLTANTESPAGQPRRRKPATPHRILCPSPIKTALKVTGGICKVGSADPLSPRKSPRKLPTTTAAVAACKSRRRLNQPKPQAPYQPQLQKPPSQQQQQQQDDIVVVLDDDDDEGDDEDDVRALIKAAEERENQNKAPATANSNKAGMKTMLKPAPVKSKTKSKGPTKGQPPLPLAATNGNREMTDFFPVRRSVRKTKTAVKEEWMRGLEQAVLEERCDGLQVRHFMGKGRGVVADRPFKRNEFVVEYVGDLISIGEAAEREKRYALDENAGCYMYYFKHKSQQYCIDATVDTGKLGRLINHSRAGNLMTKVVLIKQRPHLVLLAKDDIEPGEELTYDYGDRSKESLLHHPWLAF
The data set is described as follows: Inhibition of Drosophila melanogaster PRSET2.

A short description of data set [4]: Inhibition of Drosophila melanogaster SET7/9.
For data set [5], the target named is Histone-lysine N-methyltransferase E(z) (Drosophila melanogaster, UniProt P42124). The data set can be described thus: Inhibition of Drosophila melanogaster histone-lysine N-methyl-transferase E(z).
Data set [6] deals with T2, Histone-lysine N-methyltransferase EHMT2 (Mus musculus, UniProt Q9Z148).
T2 sequence (Q9Z148 whole entry): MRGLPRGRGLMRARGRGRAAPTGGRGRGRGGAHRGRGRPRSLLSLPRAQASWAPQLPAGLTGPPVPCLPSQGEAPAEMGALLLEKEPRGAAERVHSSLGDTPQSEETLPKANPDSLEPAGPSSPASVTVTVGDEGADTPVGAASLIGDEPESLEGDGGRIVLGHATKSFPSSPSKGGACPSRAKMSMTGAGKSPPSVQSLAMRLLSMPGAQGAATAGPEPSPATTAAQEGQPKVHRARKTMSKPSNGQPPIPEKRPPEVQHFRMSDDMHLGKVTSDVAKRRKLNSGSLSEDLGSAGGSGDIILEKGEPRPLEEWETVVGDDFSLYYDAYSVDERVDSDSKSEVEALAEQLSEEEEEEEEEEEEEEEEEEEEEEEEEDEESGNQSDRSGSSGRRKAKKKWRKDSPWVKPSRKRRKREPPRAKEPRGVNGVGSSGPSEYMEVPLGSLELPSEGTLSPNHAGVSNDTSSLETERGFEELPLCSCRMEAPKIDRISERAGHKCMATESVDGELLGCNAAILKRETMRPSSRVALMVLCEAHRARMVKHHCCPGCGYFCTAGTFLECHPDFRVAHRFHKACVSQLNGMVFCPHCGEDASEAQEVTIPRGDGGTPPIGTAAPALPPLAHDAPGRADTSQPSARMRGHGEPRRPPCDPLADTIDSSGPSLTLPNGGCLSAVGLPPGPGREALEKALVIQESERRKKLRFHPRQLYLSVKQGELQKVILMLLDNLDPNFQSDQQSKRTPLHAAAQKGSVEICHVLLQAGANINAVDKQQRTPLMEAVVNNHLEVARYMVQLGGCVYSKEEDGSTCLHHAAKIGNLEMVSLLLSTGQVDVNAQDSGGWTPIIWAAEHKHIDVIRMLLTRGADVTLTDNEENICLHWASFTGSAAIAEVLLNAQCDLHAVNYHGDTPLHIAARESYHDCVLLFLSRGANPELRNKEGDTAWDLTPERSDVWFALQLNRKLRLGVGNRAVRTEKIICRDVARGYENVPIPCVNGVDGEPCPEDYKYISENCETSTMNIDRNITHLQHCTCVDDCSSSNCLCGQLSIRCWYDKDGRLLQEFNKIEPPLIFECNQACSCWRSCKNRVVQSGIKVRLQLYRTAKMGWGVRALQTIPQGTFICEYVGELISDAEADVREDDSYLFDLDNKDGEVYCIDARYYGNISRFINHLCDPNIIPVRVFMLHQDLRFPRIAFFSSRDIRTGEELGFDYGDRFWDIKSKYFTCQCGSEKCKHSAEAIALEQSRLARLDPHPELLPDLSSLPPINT
The data set can be described thus: Inhibition of mouse G9a.

The target of data set [7] is T3, Histone-lysine N-methyltransferase, H3 lysine-9 specific dim-5 (Neurospora crassa, UniProt Q8X225).
T3 sequence (Q8X225 whole entry): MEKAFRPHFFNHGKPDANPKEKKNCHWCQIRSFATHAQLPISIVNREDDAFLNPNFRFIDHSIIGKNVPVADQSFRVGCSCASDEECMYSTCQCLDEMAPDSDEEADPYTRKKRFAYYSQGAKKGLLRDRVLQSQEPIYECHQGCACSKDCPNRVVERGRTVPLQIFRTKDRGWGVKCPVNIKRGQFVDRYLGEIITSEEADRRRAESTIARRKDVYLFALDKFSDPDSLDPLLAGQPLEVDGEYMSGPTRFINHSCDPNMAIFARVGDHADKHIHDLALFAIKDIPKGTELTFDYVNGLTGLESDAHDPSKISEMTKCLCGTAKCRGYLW
The data set can be described thus: Inhibition of Neurospora crassa DIM5.

Data set [8] can be described thus: Inhibition of human SU(VAR)3-9.
Data set [9] concerns the target Histone-lysine N-methyltransferase Su(var)3-9 (Drosophila melanogaster, UniProt P45975). The data set can be described thus: Inhibition of Drosophila melanogaster SU(VAR)3-9.
The target in data set [10] is Histone-lysine N-methyltransferase Su(var)3-9 (Drosophila melanogaster) (UniProt P45975). To be noted: SL2, 0.5 uM.
Description: Inhibition of SU(VAR)3-9 in Drosophila melanogaster SL2 cells assessed as inhibition of methylation at Lys36 in Histone H3 at 0.5 uM by MALDI-TOF MS
Data set [11] has the same target. To be noted: SL2, 0.5 uM. The source holds these as a separate data set.
Description: Inhibition of SU(VAR)3-9 in Drosophila melanogaster SL2 cells assessed as inhibition of methylation at Lys27 in Histone H3 at 0.5 uM by MALDI-TOF MS
The target is the same in data set [12]. The settings on record: SL2, 0.5 uM. This is another data set of the same source.
Description: Inhibition of SU(VAR)3-9 in Drosophila melanogaster SL2 cells assessed as inhibition of methylation at Lys4in Histone H3 at 0.5 uM by Western blot method
Data set [13] shares this target. To be noted: SL2, 0.5 uM. The source holds these as a separate data set.
Description: Inhibition of SU(VAR)3-9 in Drosophila melanogaster SL2 cells assessed as inhibition of methylation at Lys79in Histone H3 at 0.5 uM by Western blot method
Data set [14] shares this target. To be noted: SL2, 0.5 uM. The source holds these as a separate data set.
Description: Inhibition of SU(VAR)3-9 in Drosophila melanogaster SL2 cells assessed as inhibition of methylation at Lys36 in Histone H3 at 0.5 uM by Western blot method
The target is the same in data set [15]. The settings on record: SL2, 0.5 uM. This is another data set of the same source.
Description: Inhibition of SU(VAR)3-9 in Drosophila melanogaster SL2 cells assessed as inhibition of methylation at Lys27 in Histone H3 at 0.5 uM by Western blot method
Data set [16] has the same target. The settings on record: SL2, 0.5 uM. This is another data set of the same source.
Description: Inhibition of SU(VAR)3-9 in Drosophila melanogaster SL2 cells assessed as reduction of H3K9me3 at 0.5 uM by immunostaining method
Data set [17] has the same target. To be noted: SL2, 0.1 uM.
Description: Inhibition of SU(VAR)3-9 in Drosophila melanogaster SL2 cells assessed as reduction of H3K9me2 at 0.1 uM after 5 days by MALDI-TOF MS seeded at 2.5 million cells/ml density
Data set [18] shares this target. The settings on record: SL2, 0.5 uM. The source holds these as a separate data set.
Description: Inhibition of SU(VAR)3-9 in Drosophila melanogaster SL2 cells assessed as reduction of H3K9me2 at 0.5 uM after 5 days by MALDI-TOF MS seeded at 2.5 million cells/ml density
Data set [19] shares this target. To be noted: SL2, 0.5 uM. The source holds these as a separate data set.
Description: Inhibition of SU(VAR)3-9 in Drosophila melanogaster SL2 cells assessed as inhibition of methylation at Lys79in Histone H3 at 0.5 uM by MALDI-TOF MS
The target is the same in data set [20]. The settings on record: SL2, 0.5 uM. The source holds these as a separate data set.
Description: Inhibition of SU(VAR)3-9 in Drosophila melanogaster SL2 cells assessed as inhibition of methylation at Lys4in Histone H3 at 0.5 uM by MALDI-TOF MS

Sequence of Histone-lysine N-methyltransferase Su(var)3-9 (Drosophila melanogaster) (P45975 whole entry): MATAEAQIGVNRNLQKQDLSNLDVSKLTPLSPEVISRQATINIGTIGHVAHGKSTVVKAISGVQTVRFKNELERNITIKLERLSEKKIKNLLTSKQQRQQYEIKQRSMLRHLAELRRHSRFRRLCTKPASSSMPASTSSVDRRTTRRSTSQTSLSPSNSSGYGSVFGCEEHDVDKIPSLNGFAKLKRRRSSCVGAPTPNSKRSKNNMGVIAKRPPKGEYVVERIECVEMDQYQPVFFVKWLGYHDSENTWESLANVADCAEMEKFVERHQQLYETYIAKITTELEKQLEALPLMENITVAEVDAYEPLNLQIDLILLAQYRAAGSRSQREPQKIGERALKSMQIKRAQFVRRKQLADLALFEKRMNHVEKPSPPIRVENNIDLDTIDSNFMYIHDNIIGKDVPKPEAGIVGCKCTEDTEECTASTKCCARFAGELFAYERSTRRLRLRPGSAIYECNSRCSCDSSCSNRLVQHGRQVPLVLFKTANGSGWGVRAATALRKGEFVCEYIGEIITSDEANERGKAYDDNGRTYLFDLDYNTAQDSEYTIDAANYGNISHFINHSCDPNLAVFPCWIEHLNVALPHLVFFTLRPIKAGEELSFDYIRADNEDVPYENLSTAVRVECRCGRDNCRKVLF
Sequence of Histone-lysine N-methyltransferase E(z) (P42124 whole entry): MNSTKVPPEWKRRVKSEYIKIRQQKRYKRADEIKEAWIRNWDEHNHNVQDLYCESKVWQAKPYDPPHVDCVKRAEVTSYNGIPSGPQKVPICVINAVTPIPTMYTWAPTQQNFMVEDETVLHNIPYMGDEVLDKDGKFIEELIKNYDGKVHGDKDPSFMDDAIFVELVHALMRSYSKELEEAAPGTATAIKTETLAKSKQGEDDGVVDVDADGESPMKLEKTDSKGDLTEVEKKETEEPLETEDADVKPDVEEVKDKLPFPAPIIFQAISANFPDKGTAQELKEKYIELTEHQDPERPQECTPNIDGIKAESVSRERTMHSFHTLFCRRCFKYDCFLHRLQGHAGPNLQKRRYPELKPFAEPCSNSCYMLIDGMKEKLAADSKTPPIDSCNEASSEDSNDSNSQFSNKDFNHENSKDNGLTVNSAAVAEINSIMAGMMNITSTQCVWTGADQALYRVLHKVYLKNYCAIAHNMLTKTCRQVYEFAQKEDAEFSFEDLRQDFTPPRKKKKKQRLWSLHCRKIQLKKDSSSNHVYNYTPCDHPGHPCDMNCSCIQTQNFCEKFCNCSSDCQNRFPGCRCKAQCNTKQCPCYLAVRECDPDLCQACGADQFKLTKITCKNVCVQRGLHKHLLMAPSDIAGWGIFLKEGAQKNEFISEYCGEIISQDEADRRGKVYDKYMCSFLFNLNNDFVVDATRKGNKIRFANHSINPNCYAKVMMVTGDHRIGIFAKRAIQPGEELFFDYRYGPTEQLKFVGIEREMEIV
Sequence of Histone-lysine N-methyltransferase Su(var)3-9 (P45975 whole entry): as the sequence (P45975 whole entry) above

Consider `CN1C(=O)[C@@]23C[C@]4([C@]56C[C@@]78SS[C@@](CO)(C(=O)N7[C@H]5Nc5ccccc56)N(C)C8=O)c5ccccc5N[C@@H]4N2C(=O)[C@]1(CO)SS3` [CHAETOCIN], for which the Activity result with SL-2 [1] was “Non-toxic”; in the data set on SL-2 [2] it was “Toxic”. For the same compound, the half-maximal inhibitory concentration (IC50) in [3] is over 180000 nM; in data set [4], over 180000 nM; in [5], over 90000 nM; in [6] it was 2500 nM; in [7], 3000 nM; in data set [8], 800 nM. The compound further yielded an IC50 in [9] of 600 nM. Also, the inhibition entry in data set [10], in data set [11], in [12], in [13], in data set [14] and in data set [15] was “inactive” throughout. Moreover, the inhibition result in data set [19] and in data set [20] was “inactive” each time. For the same compound, the inhibition entry in [16], in data set [17] and in data set [18] was “Active” each time.
